Measured values from ChEMBL document CHEMBL1145308 (Bioorg Med Chem Lett, 2006).
pEC50: −log10 of the molar value.

Assays:
[1] = molecular target: T1, Sodium- and chloride-dependent glycine transporter 1 (Homo sapiens, UniProt P48067); test: Inhibition of [3H]glycine uptake at GlyT1
T1 sequence (P48067 whole entry): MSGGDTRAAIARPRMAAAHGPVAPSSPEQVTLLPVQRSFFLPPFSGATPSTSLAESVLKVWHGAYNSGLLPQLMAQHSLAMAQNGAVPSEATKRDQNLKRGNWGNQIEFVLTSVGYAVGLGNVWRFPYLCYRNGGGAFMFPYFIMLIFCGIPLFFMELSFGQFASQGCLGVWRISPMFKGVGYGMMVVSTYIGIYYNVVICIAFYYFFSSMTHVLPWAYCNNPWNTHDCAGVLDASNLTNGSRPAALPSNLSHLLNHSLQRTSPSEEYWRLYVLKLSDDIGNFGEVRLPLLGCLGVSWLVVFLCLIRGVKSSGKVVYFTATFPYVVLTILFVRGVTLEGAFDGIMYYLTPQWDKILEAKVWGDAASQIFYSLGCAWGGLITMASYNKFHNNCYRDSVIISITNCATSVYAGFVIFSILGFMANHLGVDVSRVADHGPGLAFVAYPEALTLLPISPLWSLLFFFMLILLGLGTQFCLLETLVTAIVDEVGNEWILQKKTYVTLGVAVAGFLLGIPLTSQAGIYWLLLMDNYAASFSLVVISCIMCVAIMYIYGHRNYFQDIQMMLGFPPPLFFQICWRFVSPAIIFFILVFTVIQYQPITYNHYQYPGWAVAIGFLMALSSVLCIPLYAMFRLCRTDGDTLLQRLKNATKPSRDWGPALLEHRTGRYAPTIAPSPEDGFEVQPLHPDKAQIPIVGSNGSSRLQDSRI

[2] = molecular target: T2, Sodium- and chloride-dependent glycine transporter 2 (Homo sapiens, UniProt Q9Y345); test: Inhibition of [3H]glycine uptake at GlyT2
T2 sequence (Q9Y345 whole entry): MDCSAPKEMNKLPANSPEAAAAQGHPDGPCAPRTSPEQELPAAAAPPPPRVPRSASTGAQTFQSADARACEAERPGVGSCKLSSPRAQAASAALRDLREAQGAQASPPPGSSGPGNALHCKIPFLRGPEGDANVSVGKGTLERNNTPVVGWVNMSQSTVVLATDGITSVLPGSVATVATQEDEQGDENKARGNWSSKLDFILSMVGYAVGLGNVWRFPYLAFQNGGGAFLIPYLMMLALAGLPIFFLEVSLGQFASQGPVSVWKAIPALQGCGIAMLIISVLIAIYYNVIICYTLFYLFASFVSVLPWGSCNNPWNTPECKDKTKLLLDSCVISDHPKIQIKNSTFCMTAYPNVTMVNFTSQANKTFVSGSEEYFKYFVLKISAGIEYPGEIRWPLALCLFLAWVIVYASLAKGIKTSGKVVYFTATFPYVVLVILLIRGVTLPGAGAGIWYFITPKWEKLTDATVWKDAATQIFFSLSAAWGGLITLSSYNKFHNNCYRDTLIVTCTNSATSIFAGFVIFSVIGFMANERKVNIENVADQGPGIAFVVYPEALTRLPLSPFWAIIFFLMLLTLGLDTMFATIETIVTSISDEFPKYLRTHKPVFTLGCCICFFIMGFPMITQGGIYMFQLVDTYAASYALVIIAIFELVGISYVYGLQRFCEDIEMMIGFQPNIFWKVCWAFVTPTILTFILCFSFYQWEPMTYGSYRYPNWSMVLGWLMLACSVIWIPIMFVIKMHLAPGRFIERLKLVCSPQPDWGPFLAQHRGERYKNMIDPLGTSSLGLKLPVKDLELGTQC

in vitro [3] = conditions: mouse, microsomes, CL
Description: Intrinsic clearance in mouse microsome

in vitro [4] = conditions: human, microsomes, CL
Description: Intrinsic clearance in human microsome

in vitro [5] = conditions: mouse, microsomes, Max Achievable Bioavailability
Description: Maximum achievable bioavailability in mouse microsome

in vitro [6] = conditions: human, microsomes, Max Achievable Bioavailability
Description: Maximum achievable bioavailability in human microsome

Row | Compound | pEC50 [1] | also measured
1 | O=C1NCC(c2ccc(F)cc2)C12CCN(C1(c3ccc(F)cc3)CCC1)CC2 (configuration not stated) | < 4.52 | 
2 | Cc1cccc(C2(N3CCC4(CC3)C(=O)NCC4c3ccc(F)cc3)CCCCC2)c1 (racemic) | 6.25 | pEC50 [2]: < 4.52
3 | O=C1NCC(c2ccc(C(F)(F)F)cc2)C12CCN(C1(c3ccc(F)cc3)CCCCC1)CC2 (racemic) | 6.36 | 
4 | O=C1NCC(c2ccc(F)cc2)C12CCN(C1(C3CC3)CCCCC1)CC2 (racemic) | < 4.52 | 
5 | CC(C)C1(N2CCC3(CC2)C(=O)NCC3c2ccc(F)cc2)CCCCC1 (racemic) | 6.10 | 
6 | N#Cc1cccc(C2(N3CCC4(CC3)C(=O)NCC4c3ccc(F)cc3)CCCCC2)c1 (racemic) | < 4.52 | 
7 | Cc1ccc(C2CNC(=O)C23CCN(C2(c4ccc(F)cc4)CCCCC2)CC3)cc1 (racemic) | 7.14 | 
8 | O=C1NCC(c2ccccc2)C12CCN(C1(C3CCCC3)CCCCC1)CC2 (racemic) | 5.20 | 
9 | O=C1NCC(c2ccccc2)C12CCN(C1(C3CC3)CCCCC1)CC2 (racemic) | < 4.52 | 
10 | CCCC1CNC(=O)C12CCN(C1(c3ccc(F)cc3)CCCCC1)CC2 (racemic) |  | microsomal CLint (in vitro [3]): 24 µL/min/mg; microsomal CLint (in vitro [4]): 14 µL/min/mg; Fh (in vitro [5]): 57%; Fh (in vitro [6]): 53%
11 | CC(C)C1(N2CCC3(CC2)C(=O)NCC3c2ccccc2)CCCCC1 (racemic) | 6.01 | 
12 | O=C1NCC(c2ccc(F)cc2)C12CCN(C1(c3ccc(F)cc3)CCCCC1)CC2 (racemic) |  | pEC50 [2]: < 4.52
13 | CC(C)=CC1(N2CCC3(CC2)C(=O)NCC3c2ccccc2)CCCCC1 (racemic) | 6.01 | 
14 | Cc1ccc(C2CNC(=O)C23CCN(C2(c4ccccc4)CCCCC2)CC3)cc1 (racemic) | 6.86 | 
15 | Cc1ccccc1C1(N2CCC3(CC2)C(=O)NCC3c2ccc(F)cc2)CCCCC1 (racemic) | 6.46 | pEC50 [2]: < 4.52
16 | CCCC1CNC(=O)C12CCN(C1(c3cccs3)CCCCC1)CC2 (racemic) | 6.64 | 
17 | O=C1NCC(c2ccccc2)C12CCN(C1(c3cccs3)CCCCC1)CC2 (racemic) | 6.83 | 
18 | O=C1NCC(c2ccccc2)C12CCN(C1(c3ccc(OC(F)(F)F)cc3)CCCCC1)CC2 (racemic) | 5.34 | 
19 | O=C1NCC(c2ccccc2)C12CCN(C1(c3ccsc3)CCCCC1)CC2 (racemic) | 6.17 | 
20 | CCCC1CNC(=O)C12CCN(C1(c3ccc(C)s3)CCCCC1)CC2 (racemic) | 6.95 | 
21 | O=C1NCC(c2ccccc2)C12CCN(C1(C3CCCCC3)CCCCC1)CC2 (racemic) | 4.82 | 
22 | O=C1NCC(c2ccc(F)cc2)C12CCN(C1(c3cccc(F)c3)CCCCC1)CC2 (racemic) | 6.41 | pEC50 [2]: < 4.52
23 | CCC1(N2CCC3(CC2)C(=O)NCC3c2ccc(F)cc2)CCCCC1 (racemic) | 5.83 | 
24 | Cl.O=C1NCC(c2ccc(F)cc2)C12CCN(C1(c3ccsc3)CCCCC1)CC2 (racemic) | 7.00 | microsomal CLint (in vitro [3]): 39 µL/min/mg; microsomal CLint (in vitro [4]): 4 µL/min/mg; Fh (in vitro [5]): 45%; Fh (in vitro [6]): 78%
25 | Cl.O=C1NCC(c2ccc(F)cc2)C12CCN(C1(c3cccs3)CCCCC1)CC2 (racemic) |  | microsomal CLint (in vitro [3]): 80 µL/min/mg; microsomal CLint (in vitro [4]): 9 µL/min/mg; Fh (in vitro [5]): 28%; Fh (in vitro [6]): 64%
26 | Cc1cccc(C2(N3CCC4(CC3)C(=O)NCC4c3ccc(F)cc3)CCCCC2)c1 (single isomer, unassigned; diastereomer 1) | 5.40 | 

Row | Compound | pEC50 [1] | also measured
27 | O=C1NCC(c2ccccc2)C12CCN(C1(c3ccc(Cl)cc3)CCCCC1)CC2 (single isomer, unassigned; diastereomer 1) |  | pEC50 [2]: < 4.52
28 | O=C1NCC(c2ccccc2)C12CCN(C1(c3ccccc3)CCOCC1)CC2 (single isomer, unassigned; diastereomer 1) | 5.44 | 
29 | COc1cccc(C2(N3CCC4(CC3)C(=O)NCC4c3ccccc3)CCCCC2)c1 (single isomer, unassigned; diastereomer 1) | 5.25 | 
30 | N#Cc1ccc(C2(N3CCC4(CC3)C(=O)NCC4c3ccccc3)CCCCC2)cc1 (single isomer, unassigned; diastereomer 1) | < 4.52 | 
31 | O=C1NCC(c2ccccc2)C12CCN(C1(c3ccccc3)CCCCC1)CC2 (single isomer, unassigned; diastereomer 1) |  | pEC50 [2]: < 4.52
32 | O=C1NCC(c2ccccc2)C12CCN(C1(c3ccc(C(F)(F)F)cc3)CCCCC1)CC2 (single isomer, unassigned; diastereomer 1) | 5.92 | 
33 | O=C1NCC(c2ccc(F)cc2)C12CCN(C1(c3ccsc3)CCCCC1)CC2 (single isomer, unassigned; diastereomer 1) | 6.67 | 
34 | O=C1NCC(c2ccccc2)C12CCN(C1(c3cccc(F)c3)CCCCC1)CC2 (single isomer, unassigned; diastereomer 1) | 6.37 | pEC50 [2]: < 4.52
35 | Cc1ccc(C2(N3CCC4(CC3)C(=O)NCC4c3ccc(F)cc3)CCCCC2)cc1 (single isomer, unassigned; diastereomer 1) | 5.83 | 
36 | F.O=C1NCC(c2ccc(F)cc2)C12CCN(C1(c3ccc(F)cc3)CCCCC1)CC2 (single isomer, unassigned; diastereomer 1) |  | pEC50 [2]: < 4.52; Fh (in vitro [5]): 46%; Fh (in vitro [6]): 67%
37 | Cc1cccc(C2(N3CCC4(CC3)C(=O)NCC4c3ccc(F)cc3)CCCCC2)c1 (single isomer, unassigned; diastereomer 2) | 6.02 | pEC50 [2]: < 4.52
38 | O=C1NCC(c2ccccc2)C12CCN(C1(c3ccc(Cl)cc3)CCCCC1)CC2 (single isomer, unassigned; diastereomer 2) |  | pEC50 [2]: < 4.52
39 | Cc1ccc(C2(N3CCC4(CC3)C(=O)NCC4c3ccccc3)CCCCC2)cc1 (single isomer, unassigned; diastereomer 2) | 6.32 | pEC50 [2]: < 4.52
40 | COc1cccc(C2(N3CCC4(CC3)C(=O)NCC4c3ccccc3)CCCCC2)c1 (single isomer, unassigned; diastereomer 2) | 4.58 | 
41 | O=C1NCC(c2ccc(F)cc2)C12CCN(C1(c3cccc(OC(F)(F)F)c3)CCCCC1)CC2 (single isomer, unassigned; diastereomer 2) | 4.67 | 
42 | O=C1NCC(c2ccccc2)C12CCN(C1(c3ccccc3)CCCCC1)CC2 (single isomer, unassigned; diastereomer 2) |  | pEC50 [2]: < 4.52
43 | O=C1NCC(c2ccccc2)C12CCN(C1(c3cccc(F)c3)CCCCC1)CC2 (single isomer, unassigned; diastereomer 2) | 6.16 | pEC50 [2]: < 4.52
44 | Cc1ccc(C2(N3CCC4(CC3)C(=O)NCC4c3ccc(F)cc3)CCCCC2)cc1 (single isomer, unassigned; diastereomer 2) | 6.38 | 
45 | O=C1NCC(c2ccccc2)C12CCN(C1(c3ccc(C(F)(F)F)cc3)CCCCC1)CC2 (single isomer, unassigned; diastereomer 2) | 5.16 | 
46 | O=C1NCC(c2ccccc2)C12CCN(C1(c3ccccc3)CCOCC1)CC2 (single isomer, unassigned; diastereomer 4) | 6.28 | 
47 | Cc1ccc(C2(N3CCC4(CC3)C(=O)NCC4c3ccccc3)CCCCC2)cc1 (stereo in doubt) | 6.55 | pEC50 [2]: < 4.52
48 | N#Cc1ccc(C2(N3CCC4(CC3)C(=O)NCC4c3ccccc3)CCCCC2)cc1 (stereo in doubt) | 4.80 | 
49 | O=C1NCC(c2ccc(F)cc2)C12CCN(C1(c3cccc(OC(F)(F)F)c3)CCCCC1)CC2 (stereo in doubt) | 4.78 | 
50 | O=C1NCC(c2ccc(F)cc2)C12CCN(C1(c3ccsc3)CCCCC1)CC2 (stereo in doubt) | 7.00 | 
51 | O=C1NCC(c2ccccc2)C12CCN(C1(c3ccccc3)CCOCC1)CC2 (stereo in doubt; form 1) | 5.14 | 
52 | O=C1NCC(c2ccccc2)C12CCN(C1(c3ccccc3)CCOCC1)CC2 (stereo in doubt; form 2) | < 4.52 | 
